These results are taken from US20160151486A1, “CD40 Signalling Inhibitor and a Further Compound, Wherein the Further Compound is a Bile Acid, a Bile Acid Derivative, an TGR5-Receptor Agonist, an FXR Agonist or a Combination Thereof, for the Treatment of Chronic Inflammation, and the Prevention of Gastrointestinal Cancer or Fibrosis” (Fast Forward Pharmaceuticals B.V., priority 2013, published 2016).

The subject of experiment [1] is peripheral blood mononuclear cells (PBMC). Kind of experiment: Cytokine secretion by PBMC stimulated with megaCD40L (after IFN-γ). The experiment is classed as cell-based, human. To be noted: megaCD40L stimulus. The procedure:
(§1) PBMC were freshly isolated from heparinized human blood using Fycoll density gradient centrifugation (Histopaque; Sigma Diagnostics). PBMC were cultured in RPMI containing 10% FCS in round-bottom 96-well plates at a concentration of 5×10E5 cells/mL. Two different stimuli were used to induce cytokine secretion from PBMC: • 1. PBMC were cultured in the presence of IFN-γ (250 U/mL) for 24 hours to induce upregulation of CD40. The CD40 pathway was subsequently activated for 24 hours with megaCD40L (100 ng/mL, Enzo Life Sciences). • 2. PBMC were cultured in the presence of IFN-γ for 24 hours to induce upregulation of CD40. Cells were subsequently stimulated for 24 hours with megaCD40L (100 ng/mL) and LPS (100 ng/mL).
(§2) Stimulated PBMC were cultured in the absence or presence of variable concentrations of PG102 (5, 10 and 100 ng/mL) and/or 6-ECDCA (0.1, 1 and 5 μM). PG102 was added simultaneously with the stimulus. In contrast, 6-ECDCA was added 3 hours before adding the stimulus. At the end of the culture period, supernatants were collected and stored at −80° C. until cytokine analysis was performed. The BD cytometric Bead Array (CBA) Human Inflammatory Cytokines Kit (BD Biosciences) was used to measure IL-1β, IL-8, IL-6, TNF and IL-12p70 levels in the culture supernatants. The assay was performed according to the manufacturer's instructions. In brief, capture beads for the cytokines of interest were mixed with supernatant or human inflammatory cytokine standards and PE detection reagent. Samples were incubated for 3 hours at room temperature in the dark. Subsequently, samples were washed and analyzed on a FACS CANTO II cytometer (BD Biosciences). Data was analyzed using de FCAP Array software (BD Biosciences).

The next experiment deals with C57/Bl6 wild type mice. Kind of experiment: DSS-induced colitis mouse model. The experiment is classed as in vivo. The protocol: Colitis was induced in C57/Bl6 wild type mice by administration of 2.5% (wt/vol) Dextran Sodium Sulphate (DSS; MW. 36000-50000 Da, MP Biochemicals Inc) in drinking water for 8 days. Pharmacological activation of FXR was accomplished by treatment with 6-ethyl-chenodeoxycholic acid (6-ECDCA). 6-ECDCA (10 mg/kg/day) or vehicle were administered by oral gavage for three days prior to the start of DSS-treatment, and continued until the end of the DSS-treatment. At the second day of DSS treatment (day 4 of 6-ECDCA treatment), mice were given an intraperitoneal (i.p.) injection with 250 μg of the hamster antibody against mouse CD40L, MR-1, or control IgG (LEAF™ Purified Armenian Hamster IgG Isotype Ctrl Antibody, Biolegend).
There were 5 treatment groups (n=10 mice/group) in the experiment: […]
Daily changes in body weight were assessed and the body weight at day 2-11 was expressed relative to the body weight at day 1. […] 4 h after FITC administration, mice were sacrificed and the amount of fluorescence in the blood was determined as a marker for permeability. The colon was isolated and colon length was measured. […] Granulocytes were identified based on GR-1 and CD11b expression and expressed as percentage of living cells in the spleen. […] Culture supernatants were collected and TNF was measured using an ELISA.

Experiment [2] deals with chemically induced intestinal inflammation. The conditions noted are these: in vivo; cited from earlier work.
Experiment [3] deals with peripheral blood mononuclear cells (PBMC). Kind of experiment: Cytokine secretion by PBMC stimulated with megaCD40L and LPS (after IFN-γ). The experiment is classed as cell-based, human. The protocol:
as §1, §2

The test system of experiment [4] is LPS-induced TNF production. The conditions noted are these: cited from earlier work.
The mark [5] stands for this setting: 6-ECDCA 5 μM, megaCD40L and LPS stimulus.

With `CC[C@H]1[C@@H](O)[C@@H]2[C@H](CC[C@]3(C)[C@@H]([C@H](C)CCC(=O)O)CC[C@@H]23)[C@@]2(C)CC[C@@H](O)C[C@@H]12` [6-ECDCA, 6-ethyl-chenodeoxycholic acid], in experiment [1] (6-ECDCA 5 μM), the “inhibition of IL-1β release” value was 35%, the “inhibition of IL-6 release” value is 18%, the “inhibition of IL-8 release” value amounted to 17% and the “inhibition of IL-12p70 release” value came out at 20%. In addition, the “inhibition of TNF release” value in experiment [1] (6-ECDCA 5 μM) came out at 14%. Moreover, in experiment [1] (6-ECDCA alone at 0.1 or 1 μM), the “release of TNF, IL-6, IL-8, IL-1β and IL-12p70” value is “did not inhibit”. Further, the “colitis disease process induced by DSS” value in the experiment with C57/Bl6 wild type mice (6-ECDCA 10 mg/kg/day oral gavage, MR-1 250 μg i.p. once, second day of DSS) is “interfered with the colitis disease process”. In the experiment with C57/Bl6 wild type mice (end of experiment, FIG. 11), the “granulocytes in the spleen (GR-1, CD11b; FACS)” value is recorded as “increase in granulocytes”. Besides, the “chemically induced intestinal inflammation” value in experiment [2] is “interfere with chemically induced intestinal inflammation”. Also, in experiment [3] (setting [5]), the “inhibition of IL-1β” value is given as 12%, the “inhibition of IL-6” value was 0%, the “inhibition of IL-8” value is recorded as 9% and the “inhibition of IL-12p70” value came out at 22%. For the same compound, the “inhibition of TNF” value in experiment [3] (setting [5]) is 21%. Also, in experiment [3] (activation of the CD40 pathway alone or in combination with the TLR-4 pathway), the “inhibiting proinflammatory cytokine release” value is given as “not very effective”. In experiment [4], the “LPS-induced TNF production” value is “inhibit LPS-induced TNF production in a dose-dependent fashion”.
